Results published in patent publication US5804571A (U.S. Bioscience, priority 1995, dated 1998).

How the values were obtained:
[1] = AZT recipients, cited from earlier work
[2] = system: murine hematopoietic system; experiment: exogenous spleen colony (CFU-S) assay, toxicity to the murine hematopoietic system; assay type: in vivo; conditions: CFU-S assay 20 hrs after drug administration, mice
Description: To evaluate toxicity to the murine hematopoietic system, an exogenous spleen colony (CFU-S) assay was used. A suitable number of murine […] are injected (intravenously) into lethally irradiated syngeneic mice (Ref. Hodgson, G. S., and Bradley, T. R., Properties of Haematopoietic Stem Cells Surviving 5-FU Treatment: Evidence for a pre-CFU-S Cell48, Nature 281:381, 1979).
Colonies are found in the spleen of the recipients on Day 9 or 10; there is a linear relationship between the number of cells injected and the number of spleen colonies. The spleen colonies originate from a single cell, and contain cells of the erythroid, granulocytic and megakaryocytic series.
At 20 hours after drug administration, each mouse was sacrificed and bone marrow was extracted from the femurs into McCoy's 5A medium (GIBCOm Grand Island, N.Y.) on ice. Nucleated marrow cells were quantitated, and 5×10^4 cells were injected intravenously into syngeneic recipient mice one hour after they received 800 rads whole body radiation. Nine days later, the recipient animals were sacrificed, and the spleens were removed and fixed in Boulin's solution. Surface colonies were then counted.

[3] = system: human immunodeficiency virus (HIV); conditions: cited from earlier work
[4] = placebo 4 percent (P less than 0.001)

Structure (SMILES) | neutropenia (less than 500 cells per cubic millimeter), share of recipients ([1]; placebo 2 percent (P less than 0.001)) | anemia with hemoglobin levels below 7.5 per deciliter, share of recipients [1, 4] | required multiple red-cell transfusions, share of recipients [1, 4] | CFU-S Survival (% of Control) ([2]; AZT alone, 400 mg/kg ip) | clinical benefits with AIDS ([3]; AIDS patients) | serious adverse reactions ([3]; human, in vivo) | CFU-S Survival (% of Control) ([2]; phosphorothioate 900 mg/kg po, followed in 30 minutes with AZT 400 mg/kg ip)
Cc1cn([C@H]2C[C@H](N=[N+]=[N-])[C@@H](CO)O2)c(=O)[nH]c1=O [AZT, 3'-azido-3'-deoxythymidinc] | 16% | 24% | 21% | 18% | clinical benefits with AIDS have been reported | serious adverse reactions, particularly bone marrow suppression were observed | 
CNCCCNCCCSP(=O)(O)O [S-3-(3-methylaminopropylamino)propyl dihydrogen phosphorothioate] |  |  |  |  |  |  | 68%
